# Data reported in patent US8691799B2, “Materials and methods for treatment of cancer and identification of anti-cancer compounds” (priority 2001, dated 2014).
# Tested on: phosphotyrosine STAT3
# Assay: Cytoblot screening for phospho-STAT3 inhibition in v-Src-transformed NIH 3T3 cells
# Type: cell-based, murine
# Conditions: 10 μM, 4 hr
# Method: Cytoblot Screening for Phospho-STAT3 Inhibition. NIH 3T3 cells stably transfected with v-Src or NIH 3T3 vector control cells (Turkson, J. et al. Mol. Cell Biol., 1999, 19:7519-7528) were plated into sterile, opaque, 96-well tissue culture plates at 25,000 cells/well. After overnight growth at 37° C., the cells were treated for 4 hr in the presence of either vehicle control or 10 μM of NCI Diversity Set compounds (http://dtp.nci.nih.gov/). After treatment, cells were washed in 100 μl cold TBS (10 mM Tris, pH 7.4, 150 mM NaCl), then fixed for one hour at 4° C. with 190 μl per well of cold 3.7% formaldehyde in TBS as described previously (Stockwell, B. R. et al. Chem. Biol., 1999, 6:71-83). Membranes were permeabilized during a five-minute incubation in ice-cold methanol at 4° C. Cells were washed with 180 μl per well 3% milk in TBS then rocked overnight at 4° C. with 50 μl per well of 3% milk in TBS containing 1:1000 dilution of anti-phospho-STAT3 (P-Tyr 705; Cell Signaling Technology, Beverly, Mass.) and 1:2000 dilution of HRP-conjugated goat anti-rabbit IgG (Jackson ImmunoResearch, West Grove, Pa.). Antibodies were aspirated and then plates were washed twice with 180 μl per well TBS. […] Quantification of results was done using GS-700 scanning densitometer (Bio-Rad Laboratories, Hercules, Calif.).
compound,measurement,value
"CC(C)(O)/C=C/C(=O)[C@](C)(O)[C@H]1[C@H](O)C[C@@]2(C)[C@@H]3CC=C4[C@@H](C=C(O)C(=O)C4(C)C)[C@]3(C)C(=O)C[C@]12C [JSI-124, cucurbitacin I]",phosphotyrosine STAT3 levels (cytoblot),reduced phosphotyrosine STAT3 to barely detectable levels
